Data published in the supplement of paper PMC4380931.

How the values were obtained:
Test in all cases: relative viability (cell count relative to DMSO-treated control) (fraction of DMSO control); higher = more viable cells / less drug effect
LOXIMVI = conditions: 24 h
Experimental: (§1)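 BRAF V600E/D melanoma cell lines were seeded in 96-well plates, treated in 4 replicates with seven doses (3.16 nM to 3.16 uM) of RAF/MEK inhibitors for 24, 48 or 72 h, and stained with Hoechst 33342 (nuclei) and DEVD-NucView488 caspase-3 substrate. Plates were imaged on an Operetta. Relative viability is the cell count normalised to a DMSO-treated control; apoptosis fraction is the fraction of NucView488-positive nuclei.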

MMACSF = test system: MMACSF
Experimental: as §1

MZ7MEL = test system: MZ7MEL
Experimental: as §1

RVH421 = test system: RVH421
Experimental: as §1

SKMEL28 = test system: SKMEL28
Experimental: as §1

WM115 = test system: WM115
Experimental: as §1

WM1552C = test system: WM1552C
Experimental: as §1

CCCS(=O)(=O)Nc1ccc(F)c(C(=O)c2c[nH]c3ncc(Cl)cc23)c1F [PLX4720]
LOXIMVI
Conditions | relative viability
0.00316 µM | 0.917
0.01 µM | 0.969
0.0316 µM | 1.03
0.1 µM | 1.1
0.316 µM | 1.05
1 µM | 1.04
3.16 µM | 0.913

relative viability
Conditions | 0.00316 µM | 0.01 µM | 0.0316 µM | 0.1 µM | 0.316 µM | 1 µM | 3.16 µM
MMACSF, 24 h | 1.02 | 0.9436 | 0.974 | 1.04 | 0.991 | 1.02 | 1.06
MMACSF, 48 h | 0.92 | 1.02 | 1.01 | 1.01 | 0.854 | 0.764 | 0.679
MMACSF, 72 h | 0.937 | 0.923 | 0.86 | 0.632 | 0.531 | 0.336 | 0.146
MZ7MEL, 24 h | 1.02 | 1.02 | 1.14 | 1.19 | 1.13 | 0.956 | 0.795
MZ7MEL, 48 h | 1.04 | 0.99 | 1.02 | 1.09 | 0.931 | 0.608 | 0.48
MZ7MEL, 72 h | 1.28 | 1.16 | 1.07 | 0.661 | 0.504 | 0.382 | 0.329
RVH421, 24 h | 0.932 | 1.01 | 0.9915 | 1.05 | 1.054 | 0.981 | 0.909
RVH421, 48 h | 1.03 | 0.881 | 0.948 | 0.939 | 0.732 | 0.673 | 0.541
RVH421, 72 h | 0.978 | 1.03 | 1.01 | 0.89 | 0.678 | 0.569 | 0.483
SKMEL28, 48 h | 0.824 | 1.43 | 1.48 | 1.42 | 1.12 | 0.941 | 0.61
SKMEL28, 72 h | 0.973 | 0.881 | 0.968 | 0.866 | 0.598 | 0.458 | 0.389
WM115, 24 h | 1.14 | 1.39 | 1.49 | 1.44 | 1.58 | 1.02 | 1.14
WM115, 48 h | 1.25 | 1.37 | 1.32 | 1.83 | 1.67 | 1.24 | 0.792
WM115, 72 h | 1.01 | 1.03 | 1.03 | 1.06 | 0.8596 | 0.594 | 0.302
WM1552C, 24 h | 1.02 | 1.05 | 1.031 | 1.08 | 1.02 | 1.064 | 0.9942
WM1552C, 48 h | 0.976 | 0.994 | 1.01 | 0.977 | 0.839 | 0.795 | 0.723
WM1552C, 72 h | 1.04 | 1.13 | 1.13 | 1.03 | 0.83 | 0.576 | 0.497

Cn1cnc2c(F)c(Nc3ccc(Br)cc3Cl)c(C(=O)NOCCO)cc21 [Selumetinib]
LOXIMVI
Conditions | relative viability
0.00316 µM | 0.937
0.01 µM | 0.976
0.0316 µM | 1.02
0.1 µM | 1.07
0.316 µM | 0.98
1 µM | 1
3.16 µM | 0.913

relative viability
Conditions | 0.00316 µM | 0.01 µM | 0.0316 µM | 0.1 µM | 0.316 µM | 1 µM | 3.16 µM
MMACSF, 24 h | 1.11 | 1.02 | 1.022 | 1.05 | 0.989 | 1.04 | 1.06
MMACSF, 48 h | 0.907 | 1.01 | 0.88 | 0.743 | 0.748 | 0.664 | 0.533
MMACSF, 72 h | 0.924 | 0.759 | 0.563 | 0.449 | 0.344 | 0.21 | 0.141
MZ7MEL, 24 h | 1.03 | 1.13 | 1.11 | 1.07 | 1.07 | 0.997 | 0.809
MZ7MEL, 48 h | 1.01 | 1.01 | 1.04 | 0.797 | 0.508 | 0.504 | 0.492
MZ7MEL, 72 h | 1.14 | 1.06 | 0.58 | 0.328 | 0.349 | 0.308 | 0.31
RVH421, 24 h | 0.975 | 0.995 | 1.032 | 1.03 | 1.09 | 1.02 | 0.919
RVH421, 48 h | 1.04 | 0.884 | 0.795 | 0.721 | 0.659 | 0.658 | 0.593
RVH421, 72 h | 1.01 | 0.988 | 0.849 | 0.657 | 0.566 | 0.511 | 0.488
SKMEL28, 48 h | 0.799 | 1.31 | 1.43 | 1.12 | 0.964 | 0.852 | 0.604
SKMEL28, 72 h | 1.06 | 0.975 | 0.804 | 0.543 | 0.449 | 0.419 | 0.337
WM115, 24 h | 1.06 | 1.27 | 1.36 | 1.27 | 1.46 | 0.89 | 0.728
WM115, 48 h | 1.02 | 1.39 | 1.37 | 1.48 | 1.24 | 0.823 | 0.592
WM115, 72 h | 1.03 | 1.07 | 0.918 | 0.751 | 0.587 | 0.409 | 0.287
WM1552C, 24 h | 0.97 | 0.993 | 1.0822 | 1.07 | 1.03 | 1.06 | 0.947
WM1552C, 48 h | 0.947 | 0.992 | 0.956 | 0.867 | 0.761 | 0.676 | 0.677
WM1552C, 72 h | 0.862 | 0.918 | 0.806 | 0.635 | 0.526 | 0.44 | 0.411

CN(C)CCOc1ccc(-c2nc(-c3ccncc3)c(-c3ccc4c(c3)CC/C4=N\O)[nH]2)cc1
LOXIMVI
Conditions | relative viability
0.00316 µM | 0.935
0.01 µM | 1.01
0.0316 µM | 1.02
0.1 µM | 0.997
0.316 µM | 1.02
1 µM | 0.987
3.16 µM | 0.903

relative viability
Conditions | 0.00316 µM | 0.01 µM | 0.0316 µM | 0.1 µM | 0.316 µM | 1 µM | 3.16 µM
MMACSF, 24 h | 1.03 | 0.999 | 0.9993 | 1.03 | 0.964 | 0.977 | 1.02
MMACSF, 48 h | 0.955 | 1.01 | 0.925 | 0.787 | 0.791 | 0.727 | 0.684
MMACSF, 72 h | 0.953 | 0.952 | 0.779 | 0.6 | 0.529 | 0.423 | 0.341
MZ7MEL, 24 h | 1.1 | 1.18 | 1.1 | 1.09 | 1.18 | 1.13 | 0.887
MZ7MEL, 48 h | 1.07 | 0.968 | 0.991 | 0.874 | 0.67 | 0.608 | 0.545
MZ7MEL, 72 h | 1.23 | 1.14 | 0.834 | 0.614 | 0.537 | 0.414 | 0.387
RVH421, 24 h | 0.994 | 0.9379 | 1.04 | 1.034 | 1.01 | 1.02 | 0.929
RVH421, 48 h | 1.07 | 0.849 | 0.803 | 0.689 | 0.672 | 0.638 | 0.513
RVH421, 72 h | 0.983 | 0.995 | 0.872 | 0.702 | 0.641 | 0.575 | 0.542
SKMEL28, 48 h | 0.835 | 1.45 | 1.59 | 1.29 | 1.1 | 0.906 | 0.643
SKMEL28, 72 h | 1.08 | 0.92 | 0.897 | 0.734 | 0.542 | 0.544 | 0.373
WM115, 24 h | 1.06 | 1.33 | 1.36 | 1.4 | 1.35 | 1.15 | 1.28
WM115, 48 h | 1.31 | 1.47 | 1.54 | 1.44 | 1.42 | 0.972 | 0.683
WM115, 72 h | 1.03 | 1.02 | 0.889 | 0.773 | 0.683 | 0.584 | 0.573
WM1552C, 24 h | 0.999 | 1.036 | 0.986 | 1.08 | 1.03 | 1.088 | 1.05
WM1552C, 48 h | 1.01 | 1.01 | 0.994 | 0.994 | 0.954 | 0.87 | 0.82
WM1552C, 72 h | 1.03 | 1.16 | 1.15 | 1.03 | 0.899 | 0.699 | 0.616
